From US20250215029A1 (Recludix Pharma, Inc., priority 2022, published 2025) come the findings set out here.

The assay has as its target T1, pY641-STAT6 in PBMC (Homo sapiens, UniProt P42226).
T1 construct: Cryopreserved Peripheral Blood Mononuclear Cells (PBMC) are from AllCells; host or cells: cryopreserved PBMC
T1 sequence (P42226 1-847): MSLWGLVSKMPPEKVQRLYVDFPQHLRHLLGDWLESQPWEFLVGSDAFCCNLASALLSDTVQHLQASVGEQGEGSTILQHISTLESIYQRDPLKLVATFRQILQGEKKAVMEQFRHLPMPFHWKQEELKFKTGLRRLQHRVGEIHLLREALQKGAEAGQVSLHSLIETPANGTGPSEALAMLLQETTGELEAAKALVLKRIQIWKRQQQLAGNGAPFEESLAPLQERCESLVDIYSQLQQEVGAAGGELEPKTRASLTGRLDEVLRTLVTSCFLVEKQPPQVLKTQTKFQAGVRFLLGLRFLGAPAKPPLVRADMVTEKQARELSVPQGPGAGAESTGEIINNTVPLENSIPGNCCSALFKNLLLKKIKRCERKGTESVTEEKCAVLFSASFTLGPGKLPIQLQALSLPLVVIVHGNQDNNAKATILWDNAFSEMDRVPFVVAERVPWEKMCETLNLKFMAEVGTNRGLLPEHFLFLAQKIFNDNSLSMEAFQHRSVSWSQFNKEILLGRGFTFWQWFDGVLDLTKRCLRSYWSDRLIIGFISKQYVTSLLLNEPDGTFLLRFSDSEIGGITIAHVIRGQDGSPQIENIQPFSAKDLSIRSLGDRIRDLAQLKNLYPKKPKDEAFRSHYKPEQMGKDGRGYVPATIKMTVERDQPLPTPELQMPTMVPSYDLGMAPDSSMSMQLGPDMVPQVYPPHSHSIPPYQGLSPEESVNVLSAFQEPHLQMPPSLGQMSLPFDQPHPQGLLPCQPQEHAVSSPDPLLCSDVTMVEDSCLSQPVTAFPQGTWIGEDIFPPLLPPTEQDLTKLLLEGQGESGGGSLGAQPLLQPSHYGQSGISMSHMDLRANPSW
The assay is described as follows: MSD-pSTAT-PBMC Assay (pSTAT6, IL-4 stimulated). It counts as cell-based. The settings on record: STAT6, PBMC, compound 3 hrs, then 1 ng/mL IL-4 for 10 min; Table 115. The procedure, abridged:
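Thawed human PBMC rested overnight in IMDM/10% FBS, then got compound for 3 hrs before a 10 min cytokine pulse: 1 ng/mL IL-4 for pSTAT6, 10 ng/mL IL-6 for pSTAT3. Lysates went to MSD sandwich capture on total STAT6 or STAT3 with phospho-specific detection. IC50 came from background-subtracted, DMSO-normalized signal.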
In general, IC50 refers to the concentration at which inhibition is half-maximal. For `CCCOC(=O)[C@H](C)NP(=O)(Oc1ccccc1)[C@H](F)c1ccc2sc(C(=O)N[C@H]3CCC[C@H]4CC[C@@H](C(=O)N5C[C@@H](c6ccccc6)[C@H](C#N)C56CC6)N4C3=O)cc2c1` (stereo partly drawn) [Compound 387, propyl (((S)-(2-(((3S,6S,9aS)-3-((6R,7S)-7-cyano-6-phenyl-4-azaspiro[2.4]heptane-4-carbonyl)-5-oxooctahydro-1H-pyrrolo[1,2-a]azepin-6-yl)carbamoyl)benzo [b]thiophen-5-yl)fluoromethyl) (phenoxy)phosphoryl)-L-alaninate], the half-inhibitory concentration (IC50) is < 100 nM.

For the compound `CCCOC(=O)[C@H](C)NP(=O)(Oc1ccccc1)C(F)c1ccc2ccc(C(=O)N[C@H]3CCCC[C@H]4CC[C@@H](C(=O)N5CC(c6ccccc6)CC56CC6)N4C3=O)cc2c1` (stereo partly drawn) [Compound 411, propyl ((fluoro(7-(((3S,6S,10aS)-5-oxo-3-(6-phenyl-4-azaspiro[2.4]heptane-4-carbonyl)decahydropyrrolo[1,2-a]azocin-6-yl)carbamoyl)naphthalen-2-yl)methyl)(phenoxy)phosphoryl)-L-alaninate], the half-inhibitory concentration (IC50) was < 100 nM.

On to `CCCOC(=O)[C@H](C)NP(=O)(Oc1ccccc1)C(F)(F)c1ccc2ccc(C(=O)N[C@H]3CCCC[C@H]4CC[C@@H](C(=O)N5C[C@@H](c6cc[nH]c(=O)c6)CC56CC6)N4C3=O)cc2c1` (stereo partly drawn) [Compound 414, propyl ((difluoro(7-(((3S,6S,10aS)-5-oxo-3-((R)-6-(2-oxo-1,2-dihydropyridin-4-yl)-4-azaspiro[2.4]heptane-4-carbonyl)decahydropyrrolo[1,2-a]azocin-6-yl)carbamoyl)naphthalen-2-yl)methyl)(phenoxy)phosphoryl)-L-alaninate], for which the concentration for half-maximal inhibition (IC50) was 100 to 1000 nM.

Take `CCCCOC(=O)[C@H](C)NP(=O)(Cc1ccc2ccc(C(=O)N[C@H]3CCCC[C@H]4CC[C@@H](C(=O)N5CC(c6ccccc6)CC56CC6)N4C3=O)cc2c1)Oc1cccc2ccccc12` (stereo partly drawn) [Compound 416, butyl ((naphthalen-1-yloxy)((7-(((3S,6S,10aS)-5-oxo-3-(6-phenyl-4-azaspiro[2.4]heptane-4-carbonyl)decahydropyrrolo[1,2-a]azocin-6-yl)carbamoyl)naphthalen-2-yl)methyl)phosphoryl)-L-alaninate]: the IC50 was > 3000 nM.

For the compound `CC(C)COC(=O)[C@H](C)NP(=O)(Oc1ccccc1)[C@@H](F)c1ccc2sc(C(=O)N[C@H]3CCCC[C@H]4CC[C@@H](C(=O)N5C[C@@H](c6cccnc6)CC56CC6)N4C3=O)cc2c1` (stereo partly drawn) [Compound 417, isobutyl (((R)-fluoro(2-(((3S,6S,10aS)-5-oxo-3-((R)-6-(pyridin-3-yl)-4-azaspiro[2.4]heptane-4-carbonyl)decahydropyrrolo[1,2-a]azocin-6-yl)carbamoyl)benzo [b]thiophen-5-yl)methyl)(phenoxy)phosphoryl)-L-alaninate], the 50% inhibitory concentration (IC50) is < 100 nM.

Take `C[C@H](NP(=O)(Oc1ccccc1)[C@@H](F)c1ccc2sc(C(=O)N[C@H]3CCCC[C@H]4CC[C@@H](C(=O)N5C[C@@H](c6cccnc6)CC56CC6)N4C3=O)cc2c1)C(=O)OC1CC1` (stereo partly drawn) [Compound 418, cyclopropyl (((R)-fluoro(2-(((3S,6S,10aS)-5-oxo-3-((R)-6-(pyridin-3-yl)-4-azaspiro[2.4]heptane-4-carbonyl)decahydropyrrolo[1,2-a]azocin-6-yl)carbamoyl)benzo [b]thiophen-5-yl)methyl)(phenoxy)phosphoryl)-L-alaninate]: the IC50 was < 100 nM.

With `CC(C)OC(=O)[C@H](C)NP(=O)(Cc1ccc2ccc(C(=O)N[C@H]3CCCC[C@H]4CC[C@@H](C(=O)N5C[C@H](c6cc[nH]c(=O)c6)CC56CC6)N4C3=O)cc2c1)Oc1ccccc1` (stereo partly drawn) [Compound 423, isopropyl (((7-(((3S,6S,10aS)-5-oxo-3-((S)-6-(2-oxo-1,2-dihydropyridin-4-yl)-4-azaspiro[2.4]heptane-4-carbonyl)decahydropyrrolo[1,2-a]azocin-6-yl)carbamoyl)naphthalen-2-yl)methyl)(phenoxy)phosphoryl)-L-alaninate], the IC50 lay within 100 to 1000 nM.

As for `CC(C)OC(=O)[C@H](C)NP(=O)(Cc1ccc2ccc(C(=O)N[C@H]3CCCC[C@H]4CC[C@@H](C(=O)N5C[C@@H](c6cc[nH]c(=O)c6)CC56CC6)N4C3=O)cc2c1)Oc1ccccc1` (stereo partly drawn) [Compound 424, isopropyl (((7-(((3S,6S,10aS)-5-oxo-3-((R)-6-(2-oxo-1,2-dihydropyridin-4-yl)-4-azaspiro[2.4]heptane-4-carbonyl)decahydropyrrolo[1,2-a]azocin-6-yl)carbamoyl)naphthalen-2-yl)methyl)(phenoxy)phosphoryl)-L-alaninate], the IC50 lay in the range of 100 to 1000 nM.

Turning to `CCCOC(=O)[C@H](C)NP(=O)(Oc1ccccc1)C(F)c1ccc2ccc(C(=O)N[C@H]3CCCC[C@H]4CC[C@@H](C(=O)N5CCC(c6cccnc6)C5)N4C3=O)cc2c1` (stereo partly drawn) [Compound 427, propyl ((fluoro(7-(((3S,6S,10aS)-5-oxo-3-(3-(pyridin-3-yl)pyrrolidine-1-carbonyl)decahydropyrrolo[1,2-a]azocin-6-yl)carbamoyl)naphthalen-2-yl)methyl)(phenoxy)phosphoryl)-L-alaninate], the IC50 is < 100 nM.

On to `CCCOC(=O)[C@H](C)NP(=O)(Oc1ccccc1)C(F)c1ccc2ccc(C(=O)N[C@H]3CCCC[C@H]4CC[C@@H](C(=O)N5CC(c6cccnc6)CC56CC6)N4C3=O)cc2c1` (stereo partly drawn) [Compound 429, propyl ((fluoro(7-(((3S,6S,10aS)-5-oxo-3-(6-(pyridin-3-yl)-4-azaspiro[2.4]heptane-4-carbonyl)decahydropyrrolo[1,2-a]azocin-6-yl)carbamoyl)naphthalen-2-yl)methyl)(phenoxy)phosphoryl)-L-alaninate], for which the IC50 was < 100 nM.

For the compound `C[C@H](NP(=O)(Cc1ccc2ccc(C(=O)N[C@H]3CCCC[C@H]4CC[C@@H](C(=O)N5CC(c6ccccc6)CC56CC6)N4C3=O)cc2c1)Oc1ccccc1)C(=O)OCC(C)(C)C` (stereo partly drawn) [Compound 436, neopentyl (((7-(((3S,6S,10aS)-5-oxo-3-(6-phenyl-4-azaspiro[2.4]heptane-4-carbonyl)decahydropyrrolo[1,2-a]azocin-6-yl)carbamoyl)naphthalen-2-yl)methyl)(phenoxy)phosphoryl)-L-alaninate], the IC50 was > 3000 nM.

For `CCCOC(=O)[C@H](C)NP(=O)(Oc1ccccc1)C(F)c1ccc2ccc(C(=O)N[C@H]3CCCC[C@H]4CC[C@@H](C(=O)N5CC(c6ccn(C)c(=O)c6)CC56CC6)N4C3=O)cc2c1` (stereo partly drawn) [Compound 440, propyl ((fluoro(7-(((3S,6S,10aS)-3-(6-(1-methyl-2-oxo-1,2-dihydropyridin-4-yl)-4-azaspiro[2.4]heptane-4-carbonyl)-5-oxodecahydropyrrolo [1,2-a]azocin-6-yl)carbamoyl)naphthalen-2-yl)methyl)(phenoxy)phosphoryl)-L-alaninate], the IC50 was < 100 nM.

Turning to `CCCOC(=O)[C@H](C)NP(=O)(Oc1ccccc1)C(F)c1ccc2ccc(C(=O)N[C@H]3CCCC[C@H]4CC[C@@H](C(=O)N5C[C@@H](c6ccn(C)c(=O)c6)CC56CC6)N4C3=O)cc2c1` (stereo partly drawn) [Compound 441, propyl ((fluoro(7-(((3S,6S,10aS)-3-((R)-6-(1-methyl-2-oxo-1,2-dihydropyridin-4-yl)-4-azaspiro[2.4]heptane-4-carbonyl)-5-oxodecahydropyrrolo [1,2-a]azocin-6-yl)carbamoyl)naphthalen-2-yl)methyl)(phenoxy)phosphoryl)-L-alaninate], the 50% inhibitory concentration (IC50) is < 100 nM.

For `CCCOC(=O)[C@H](C)NP(=O)(Oc1ccccc1)C(F)c1ccc2ccc(C(=O)N[C@H]3CCCC[C@H]4CC[C@@H](C(=O)N5C[C@H](c6ccccc6)[C@@H](C#N)C56CC6)N4C3=O)cc2c1` (stereo partly drawn) [Compound 442, propyl (((7-(((3S,6S,10aS)-3-((6S,7R)-7-cyano-6-phenyl-4-azaspiro[2.4]heptane-4-carbonyl)-5-oxodecahydropyrrolo [1,2-a]azocin-6-yl)carbamoyl)naphthalen-2-yl)fluoromethyl) (phenoxy)phosphoryl)-L-alaninate], the IC50 was < 100 nM.

Compound `CCCOC(=O)[C@H](C)NP(=O)(Oc1ccccc1)C(F)c1ccc2ccc(C(=O)N[C@H]3CCCC[C@H]4CC[C@@H](C(=O)N5C[C@H](c6ccn(C)c(=O)c6)CC56CC6)N4C3=O)cc2c1` (stereo partly drawn) [Compound 443, propyl ((fluoro(7-(((3S,6S,10aS)-3-((S)-6-(1-methyl-2-oxo-1,2-dihydropyridin-4-yl)-4-azaspiro[2.4]heptane-4-carbonyl)-5-oxodecahydropyrrolo [1,2-a]azocin-6-yl)carbamoyl)naphthalen-2-yl)methyl)(phenoxy)phosphoryl)-L-alaninate] had a half-maximal inhibitory concentration (IC50) of 100 to 1000 nM.
